Measured values published in BigSolDB 2.1.

Cc1c(-c2ccccc2)oc2c(C(=O)OCCN3CCCCC3)cccc2c1=O.Cl
solubility (mole fraction)
Conditions	278.15 K	283.15 K	288.15 K	293.15 K	298.15 K	303.15 K	308.15 K	313.15 K	318.15 K	323.15 K
in 2-ethoxyethanol	0.000121	0.000162	0.000173	0.000211	0.000252	0.000309	0.000362	0.00044	0.000533	0.000636
in 2-methoxyethanol	0.000431	0.000521	0.000578	0.000675	0.000788	0.000931	0.00107	0.00129	0.00152	0.00182
in 2-propoxyethanol	0.000193	0.000212	0.000255	0.000303	0.000355	0.000413	0.000509	0.000593	0.000704	0.000881
in DMSO	–	–	–	0.000626	0.000775	0.000911	0.00107	0.00129	0.00152	0.0018
in NMP	0.000254	0.000334	0.00039	0.00047	0.000548	0.000646	0.000768	0.000919	0.00109	0.0013
in acetonitrile	2.88e-05	3.71e-05	4.2e-05	4.95e-05	6.13e-05	7.58e-05	8.98e-05	0.000112	0.000141	0.000174
in ethanol	8.81e-05	9.89e-05	0.000117	0.000143	0.000182	0.00022	0.000284	0.000364	0.000452	0.000565
in ethylene glycol	0.000868	0.00115	0.00136	0.00161	0.002	0.00236	0.00284	0.00347	0.00415	0.005
in methanol	0.000529	0.000637	0.000808	0.000961	0.00116	0.0014	0.00169	0.00207	0.00255	0.00317
in n-butanol	3.52e-05	4.51e-05	6.1e-05	9.1e-05	0.000124	0.000171	0.000223	0.000303	0.000374	0.000468
in n-propanol	2.87e-05	3.76e-05	4.58e-05	6.56e-05	0.000107	0.000142	0.000188	0.000252	0.000331	0.000425
in water	0.000219	0.00026	0.000301	0.000361	0.000442	0.000526	0.000629	0.000757	0.00092	0.00114
